Assay results: article PMC3506555, “[^11C]phenytoin revisited: synthesis by [^11C]CO carbonylation and first evaluation as a P-gp tracer in rats” (EJNMMI Research, 2012)
Read-outs that look alike come from different tables or passages of the source.

Tested on: multi-resistant protein (MRP) efflux proteins
Test: PET Logan graphical analysis of brain VT after probenecid
Assay type: in vivo, Sprague–Dawley rats
Details: for Kp: Sprague-Dawley, rat, iv, with probenecid 150 mg/kg i.v., after probenecid 150 mg·kg^−1 i.v., n = 2, metabolite-corrected
From the text: Following cannulation of the femoral vein, animals were positioned in pairs in a double LSO/LYSO layer high-resolution research tomograph (CTI/Siemens, Knoxville, TN, USA). First, for attenuation and scatter correction purposes, a transmission scan was acquired using a 740-MBq two-dimensional fan-collimated ^137Cs (662 keV) moving point source. Next, a dynamic emission scan was acquired immediately following administration of 17.1 ± 2.1 MBq (mean ± SD) ^11C]phenytoin to each rat. Two animals had one single ^11C]phenytoin scan; two animals had two consecutive scans, and two had three consecutive scans. Finally, all animals underwent an ^18F]FDG scan before being euthanized. Tariquidar, 15 mg·kg^−1, was used to completely block P-gp, while probenecid, 150 mg·kg^−1, was used to inhibit multi-resistant protein (MRP) efflux proteins. Tariquidar and probenecid were administered i.v. 20 min prior to the scan start as a 10-min infusion. All animals, except one, were scanned without any treatment prior to the first ^11C]phenytoin scan. Of the animals that had two scans, one underwent two post-tariquidar scans (animal 4, Table 1). […] Animals that underwent three consecutive scans had one baseline, one post probenecid and one post-tariquidar scan. During each scan, emission data were acquired for 60 min in list mode and rebinned into the following frame sequence: 7 × 10, 1 × 20, 3 × 30, 2 × 60, 2 × 150, 2 × 300 and 4 × 600 s. Following corrections for decay, dead time, attenuation, random and scatter, scans were reconstructed using a 3D ordinary Poisson ordered subsets expectation maximization algorithm. […] PET image data were analyzed using the freely available software package Amide 0.9 [31]. A magnetic resonance (MR)-based rat brain atlas was used to define five regions of interest (ROIs): the hippocampus, occipital cortex, parietal cortex, caudate putamen and cerebellum. The MR atlas including all ROIs was aligned visually with the summed ^18F]FDG image for each rat. ROIs were then projected onto all frames of all ^11C]phenytoin scans, resulting in ^11C]phenytoin time-activity curves for each scan and rat.
During each [^11C]phenytoin scan, arterial blood samples of 0.1 mL were taken at 20 and 40 s and at 1, 2, 5, 15, 30 and 60 min after [^11C]phenytoin injection. For animals that underwent three scans, the amount of blood withdrawn was reduced by replacing the two samples at 15 and 30 min with a single 20-min sample. Plasma was obtained by centrifugation at 4,000 rpm for 5 min at 4°C, and activity in both plasma and whole blood was measured in an automated 1282 Compugamma CS Universal Gamma Counter (LKB Wallac, Turku, Finland), cross-calibrated against the PET scanner. Standardized uptake values (SUVs) as a function of time were derived by normalizing measured radioactivity concentrations against injected dose and body weight.
To obtain a model independent estimate of the brain-to-plasma partition coefficient, often referred to as volume of distribution, Logan graphical analysis was used. Before Logan analysis, both brain and plasma concentrations were corrected for labeled metabolites. As metabolite fractions were not measured at each plasma or mid-frame time point, linear regression was used to estimate the fraction of intact ^11C]phenytoin at each time point.

## O=C1N[11C](=O)NC1(c1ccccc1)c1ccccc1 [[^11C]phenytoin]
Caudate putamen (relative to plasma), read-out: VT (Logan), caudate putamen
  Kp: 0.57 ± 0.01
Cerebellum (relative to plasma), read-out: VT (Logan), cerebellum
  Kp: 0.61 ± 0.01
Hippocampus (relative to plasma), read-out: VT (Logan), hippocampus
  Kp: 0.59
Occipital cortex (relative to plasma), read-out: VT (Logan), occipital cortex
  Kp: 0.59
Parietal cortex (relative to plasma), read-out: VT (Logan), parietal cortex
  Kp: 0.57 ± 0.03
Probenecid 150 mg·kg^−1, n = 2, animals in poor condition
  Change in VT after probenecid (interaction with MRP): no indication of an increase in VT
